T1: DynF (Micromonospora chersina, UniProt B2BM43)
T1 construct: full-length, N-terminal 6xHis tag cleaved with TEV protease (one extra Ser before Met1); E. coli BL21 (DE3); dimer
T1 sequence (B2BM43 1-210): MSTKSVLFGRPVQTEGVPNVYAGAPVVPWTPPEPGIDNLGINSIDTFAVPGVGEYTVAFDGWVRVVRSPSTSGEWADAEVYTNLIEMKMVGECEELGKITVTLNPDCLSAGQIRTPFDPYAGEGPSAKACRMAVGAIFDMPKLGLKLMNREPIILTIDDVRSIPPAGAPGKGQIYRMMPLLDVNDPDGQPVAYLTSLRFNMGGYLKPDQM

B1: DynF from Micromonospora chersina ATCC53710 (natural protein)
chain: T1 sequence (B2BM43 1-210)
notes: DynF, Micromonospora chersina ATCC53710, protein of unknown function from the dynemicin biosynthetic gene cluster; GenBank ACB47058.1; the insert primers run from the ATG to the TGA stop codon; The tag mgsshhhhhhenlyfq/s was cut by TEV protease at the slash, so one serine of the tag stays before Met1 (211 residues a chain; 418 of 422 residues built for two chains); Vector pNIC28-Bsa4 (Addgene …)

Key:
[1] = target: T1, DynF; test: X-ray crystal structure ([…] Å); GC-MS of acetonitrile extract; type: binding; conditions: co-purified from E. coli; bound inside the beta-barrel cavity of each protomer
[2] = target: the molecule itself; test: crystal structure; sitting-drop vapor diffusion, 293 K, 25%(w/v) PEG 1500, 0.1 M PCB buffer pH 7.0; space group C222(1); two molecules in the asymmetric unit; palmitic acid bound

Molecule	X-ray crystal structure (1.50 Å); GC-MS of acetonitrile extract [1]	binding result [2]
CCCCCCCCCCCCCCCC(=O)O [palmitic acid]	confirmed by gas chromatography–mass spectrometry (GC-MS) as palmitic acid	
B1		binds

Reference: publication PMC8725005, “The crystal structure of DynF from the dynemicin-biosynthesis pathway of Micromonospora chersina” (Acta Crystallographica. Section F, Structural Biology …, 2022)
